Positions of bridges follow the written chain, without caps; N, C: chain ends. Non-standard residues stand in square brackets, D forms with d. Residues, ends and D or L forms follow the SMILES beside them. *: point of attachment. NH(CH2CH2O)2(CH2)6Cl = ClCCCCCCOCCOCCN*
Key:
[1] = system: HeLa cells stably expressing HaloTag; assay: Chloroalkane penetration assay (CAPA); type: in vitro ADME, human
Text: We first tested the cell permeability of GD20, as peptide-based chemical probes often suffer from poor cell permeability. […] In order to quantitatively evaluate the cell permeability of GD20, we used a recently developed HaloTag-based assay known as a chloroalkane penetration assay (CAPA) (Figure S6I) (Peraro et al., 2018). HeLa cells stably expressing HaloTag localized to the mitochondrial outer membrane were pulsed with chloroalkane-tagged molecules (ct-molecule), washed, chased with chloroalkane-tagged TAMRA fluorophore (ct-TAMRA), and finally analyzed by flow cytometry. A lower ct-TAMRA fluorescent signal indicates competition from a higher cytosolic concentration of ct-molecule. The carboxyl terminus of GD20 (G15) was conjugated with a chloroalkane tag to make ct-GD20 (FIG. 23A).
The cell lines used for CAPA were HeLa cell lines, generated by Chenoweth and co-workers, that stably express HaloTag exclusively in the cytosol (Peraro et al., 2018). Cells were seeded in a 96-well plate the day before the experiment at a density of 4×10^4 cells per well. The day of the experiment the media was aspirated, and 100 μL of cyclic peptide dilutions in DMEM were added to the cells. Plate was incubated for 19.5 h at 37° C. with 5% CO2. […] The cells were then trypsinized, quenched with DMEM, resuspended in PBS, and analyzed using a benchtop flow cytometer (CytoFLEX, Beckman).

[2] = target: T1, Gαs (Homo sapiens, UniProt P63092); assay: GTPγS binding assay ([35S]GTPγS); type: biochemical; set-up: made in house; host or cells: Escherichia coli BL21(DE3)
T1 sequence (P63092 1-380 isoform P63092-2): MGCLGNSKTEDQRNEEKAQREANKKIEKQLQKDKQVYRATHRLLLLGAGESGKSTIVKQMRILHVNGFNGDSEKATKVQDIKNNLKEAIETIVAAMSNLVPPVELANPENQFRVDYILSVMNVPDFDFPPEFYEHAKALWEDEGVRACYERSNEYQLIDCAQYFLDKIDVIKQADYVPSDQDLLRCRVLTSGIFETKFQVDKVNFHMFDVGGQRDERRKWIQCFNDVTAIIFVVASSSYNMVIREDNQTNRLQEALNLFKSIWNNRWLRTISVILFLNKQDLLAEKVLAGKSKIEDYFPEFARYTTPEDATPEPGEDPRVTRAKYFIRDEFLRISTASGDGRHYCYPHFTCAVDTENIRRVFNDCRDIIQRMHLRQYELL
Protocol: Gα proteins were diluted to 10 μM with dilution buffer (20 mM HEPES 7.5, 150 mM NaCl, 1 mM MgCl2, 2 mM DTT, and 20 μM GDP) and incubated with 5× stocks of cyclic peptides at room temperature for 2 hours. GTPγS binding was initiated by mixing with the reaction buffer at room temperature (50 nM [35S]GTPγS and 100 μM GTPγS in dilution buffer) at room temperature. At various time points, 10 μL of the sample was removed and mixed with 390 μL of ice-cold wash buffer (20 mM HEPES 7.5, 150 mM NaCl, 20 mM MgCl2). The mixture was filtered through a mixed cellulose membrane (25 mm, 0.22 μm). The membrane was washed by ice-cold wash buffer (500 μL×3), put in a 6-mL plastic vial and air-dried (room temperature 1.5 h). 5 mL of CytoScint-ES Liquid Scintillation Cocktail (MP Biomedicals) was added to each vial. After incubation overnight at room temperature, the vial was used for liquid scintillation counting with a LS 6500 Multi-Purpose Scintillation Counter. A standard curve was generated using [35S]GTPγS. The radioactive activity (Counts per minute) of the samples were converted to the GTPγS concentration. The GTPγS binding curves were fitted by the software GraphPad Prism using the following equation to calculate the apparent GTPγS binding rates (kapp): […]
in which “Y” is the concentration of GTPγS that bound to Gα protein at time “X” (minutes).

[3] = target: T1, Gαs; assay: GDP dissociation assay ([3H]GDP); type: biochemical; set-up: made in house; host or cells: Escherichia coli BL21(DE3)
Protocol: (§1) Gα proteins were diluted to 400 nM in the EDTA buffer (20 mM HEPES 7.5, 150 mM NaCl, 1 mM EDTA-Na 8.0, 2 mM DTT). [^3H]GDP (1 mCi/mL, 25.2 μM) was added to a final concentration of 1.2 μM, followed by cyclic peptides addition. After incubation at 20° C. for 30 minutes, the same volume of assay buffer ([…] HEPES-Na 7.5, 150 mM NaCl, 2 mM MgCl2, and 1 mM GDP) was added to initiate [^3H]GDP dissociation. At various points, […] was removed and mixed with 390 μL of ice-cold wash buffer (20 mM HEPES 7.5, 150 mM NaCl, 20 mM MgCl2). The mixture was immediately filtered through a mixed cellulose membrane (25 mm, 0.22 μm) held by a microanalysis filter holder (EMD Millipore). The membrane was washed by ice-cold wash buffer (500 μL×3), put in a 6-mL plastic vial and air-dried (room temperature 1.5 h). 5 mL of CytoScint-ES Liquid Scintillation Cocktail was added to each vial. After incubation overnight at room temperature, the vial was used for liquid scintillation counting with a LS 6500 Multi-Purpose Scintillation Counter.
The GDP dissociation curves were fitted by the software GraphPad Prism using the following equation to calculate the dissociation rates (koff): […]
in which “Y” is the radioactivity (Counts per minute) of the sample at time “X” (minutes), and Y0 is the calculated radioactivity of the sample at the time point 0.

[4] = target: T2, GppNHp-bound Gαi1 (Homo sapiens, UniProt P63096); assay: Bio-layer interferometry (BLI) binding; details: highest concentration tested
T2 construct: hexahistidine (N, cleaved yes); made in house; host or cells: Escherichia coli BL21(DE3)
T2 sequence (P63096 with tags, fused parts or gaps): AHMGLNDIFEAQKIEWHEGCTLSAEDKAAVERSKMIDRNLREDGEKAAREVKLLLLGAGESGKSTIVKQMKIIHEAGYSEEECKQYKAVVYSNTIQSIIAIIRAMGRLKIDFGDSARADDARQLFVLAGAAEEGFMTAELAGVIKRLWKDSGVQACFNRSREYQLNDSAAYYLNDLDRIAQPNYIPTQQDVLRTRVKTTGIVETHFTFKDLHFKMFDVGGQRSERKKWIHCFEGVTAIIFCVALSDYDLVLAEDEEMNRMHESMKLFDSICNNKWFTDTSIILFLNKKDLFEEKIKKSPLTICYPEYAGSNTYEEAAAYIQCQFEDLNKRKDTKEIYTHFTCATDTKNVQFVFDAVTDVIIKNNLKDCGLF
Protocol: (§2) BLI experiments were performed using an OctetRED384 instrument from ForteBio. All experiments were performed at 25° C. using BLI buffer (10 mM HEPES pH 7.4, 150 mM NaCl, 1 mM MgCl2, 0.05% Tween-20, 0.1% DMSO, 0.2 mM GppNHp or GDP). Cyclic peptides were diluted to a series of concentrations in BLI buffer plus 10 μM Biotin. Assays were conducted in Greiner 384well, black, flat bottom polypropylene plates containing the protein solutions, BLI buffer plus 10 μM Biotin for dissociation, and serial dilutions of cyclic peptides to be tested.
(§3) Biotinylated proteins were immobilized on Streptavidin biosensors by dipping sensors into plate wells containing protein solutions at a concentration of 100-150 nM. Protein loading is around 2-3 nm. Sensors loaded with proteins were moved and dipped into wells with BLI buffer plus 10 μM Biotin to block unlabeled Streptavidin. Association-dissociation cycles of compounds were started by moving and dipping sensors to cyclic peptides dilutions and BLI buffer plus 10 μM Biotin wells alternatively. Association and dissociation times were carefully determined to ensure full association and dissociation.
(§4) Raw kinetic data collected were processed with the Data Analysis software provided by the manufacturer using single reference subtraction in which buffer-only reference was subtracted (For GN13 analysis). Because GD20 analogs have a low level of background binding, we used a double reference subtraction (buffer-only reference and non-protein-loading reference) method to calculate their kinetics values. The resulting data were analyzed based on a 1:1 binding model from which kon and koff values were obtained and then Kd values were calculated.

[5] = target: T3, GDP-bound Gαi1 (Homo sapiens, UniProt P63096); assay: Bio-layer interferometry (BLI) binding; details: highest concentration tested
T3 construct: hexahistidine (N, cleaved yes); made in house; host or cells: Escherichia coli BL21(DE3)
T3 sequence (P63096 with tags, fused parts or gaps): as above
Protocol: as §2, §3, §4

[6] = target: T4, GDP-bound Gαs (Homo sapiens, UniProt P63092); assay: Bio-layer interferometry (BLI) binding kinetics; details: GDP/Gαs
T4 construct: hexahistidine (N, cleaved yes); made in house; host or cells: Escherichia coli BL21(DE3)
Protocol: as §2, §3, §4

[7] = target: Gαi (Homo sapiens, UniProt P63096); assay: Nucleotide exchange step (GDP dissociation / GTPγS binding); type: biochemical; details: compared with Gαs
Sequence of Gαi (P63096 whole entry): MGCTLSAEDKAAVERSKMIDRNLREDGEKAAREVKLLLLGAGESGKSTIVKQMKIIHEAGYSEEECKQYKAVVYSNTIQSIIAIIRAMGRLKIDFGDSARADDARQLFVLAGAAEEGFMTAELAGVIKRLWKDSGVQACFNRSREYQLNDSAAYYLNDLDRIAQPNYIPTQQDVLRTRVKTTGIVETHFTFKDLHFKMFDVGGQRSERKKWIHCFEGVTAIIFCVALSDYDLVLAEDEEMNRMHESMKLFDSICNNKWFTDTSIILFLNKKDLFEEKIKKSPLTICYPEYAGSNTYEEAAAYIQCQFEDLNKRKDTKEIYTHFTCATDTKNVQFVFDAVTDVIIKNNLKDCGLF
Protocol: as §1
Gα proteins were diluted to 10 μM with dilution buffer (20 mM HEPES 7.5, 150 mM NaCl, 1 mM MgCl2, 2 mM DTT, and 20 μM GDP) and incubated with 5× stocks of cyclic peptides at room temperature for 2 hours. GTPγS binding was initiated by mixing with the reaction buffer at room temperature (50 nM [35S]GTPγS and 100 μM GTPγS in dilution buffer) at room temperature. […]

[8] = target: GppNHp-bound Gαs (Homo sapiens, UniProt P63092); assay: Bio-layer interferometry (BLI) binding kinetics; set-up: hexahistidine (N, cleaved yes); made in house; host or cells: Escherichia coli BL21(DE3); details: highest concentration tested
Sequence of GppNHp-bound Gαs (P63092 with tags, fused parts or gaps isoform P63092-2): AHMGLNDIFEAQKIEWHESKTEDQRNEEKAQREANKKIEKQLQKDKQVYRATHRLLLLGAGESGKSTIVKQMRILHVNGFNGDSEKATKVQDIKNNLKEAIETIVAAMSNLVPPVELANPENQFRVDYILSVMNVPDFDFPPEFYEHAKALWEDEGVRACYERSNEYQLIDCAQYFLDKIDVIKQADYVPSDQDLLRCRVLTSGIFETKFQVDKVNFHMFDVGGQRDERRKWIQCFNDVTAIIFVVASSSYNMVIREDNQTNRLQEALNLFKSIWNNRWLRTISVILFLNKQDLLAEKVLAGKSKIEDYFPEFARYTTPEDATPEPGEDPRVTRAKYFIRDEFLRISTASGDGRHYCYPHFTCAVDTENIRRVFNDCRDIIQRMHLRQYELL
Protocol: as §2, §3, §4

[9] = target: T5, Biotinylated Avi-tagged WT Gαs (residues 7-380 of the short isoform of human Gαs), GDP-bound (human, UniProt P63092 7-394, biotin on the Avi tag (BirA)); assay: TR-FRET competition: biotinylated Gαs or Gαi (GDP) against His-Gβγ(C68S)
T5 construct: Loaded with GDP; Same polypeptide as m7, other nucleotide state; also called biotinylated Gαs WT
T5 sequence (P63092 other isoform, or with tags, fused parts or gaps limits assumed): as the sequence (P63092 with tags, fused parts or gaps isoform P63092-2) above
Protocol: (§5) Biotinylated avi-Gαs (6-end, WT) and avi-Gαi (FL, WT) were diluted to 32 nM (8×) using assay buffer (1× PBS 7.4, 2 mM DTT, 0.1% BSA, 2 mM MgCl₂, 0.05% Tween plus 0.5 mM GDP), followed by mixing with a same volume of 8× streptavidin XL665 stock (32 nM in the assay buffer). 8× His-Gβ/γ (C68S) stock (16 nM) and 8× anti-6His-Tb cryptate stock (0.4 μg/mL) were added into the Gα/XL665 mixtures. Finally, 2× stocks of cyclic peptides were added with the protein mixtures. After incubation at room temperature for 2 hour at room temperature. […] FRET Signal was calculated as the ratio of [Read B]/[Read A].

[10] = target: WT Gαs (purified, steady-state GTPase, GDP dissociation and GTPγS binding assays) (UniProt P63092-2 7-380); assay: cell-based or functional assay
Sequence of WT Gαs (purified, steady-state GTPase, GDP dissociation and GTPγS binding assays) (P63092 other isoform, or with tags, fused parts or gaps limits assumed): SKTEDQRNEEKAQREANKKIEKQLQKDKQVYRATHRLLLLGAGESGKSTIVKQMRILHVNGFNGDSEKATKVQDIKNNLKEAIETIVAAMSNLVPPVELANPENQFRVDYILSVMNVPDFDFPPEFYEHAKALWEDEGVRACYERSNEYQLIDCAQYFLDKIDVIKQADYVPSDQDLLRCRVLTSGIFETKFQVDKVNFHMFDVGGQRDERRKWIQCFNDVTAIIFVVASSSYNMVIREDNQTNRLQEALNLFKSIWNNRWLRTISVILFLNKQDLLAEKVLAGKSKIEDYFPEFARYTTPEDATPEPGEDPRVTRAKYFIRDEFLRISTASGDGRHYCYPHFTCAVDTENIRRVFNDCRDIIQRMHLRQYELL

[11] = target: T5, Biotinylated Avi-tagged WT Gαs …; assay: TR-FRET competition: biotinylated GDP-bound Gαs WT against His-Gβγ(C68S)
Protocol: as §5

[12] = target: T6, Biotinylated His/Avi-tagged Gαs used in the RaPID selection, GppNHp-bound (human, UniProt P63092 7-394, biotin on the Avi tag (BirA co-expressed)); assay: RaPID comparison selection: peptide-mRNA-cDNA complexes on Gαs-immobilized streptavidin beads, qPCR and sequencing
T6 construct: Immobilized on streptavidin magnetic beads
T6 sequence (P63092 other isoform, or with tags, fused parts or gaps limits assumed): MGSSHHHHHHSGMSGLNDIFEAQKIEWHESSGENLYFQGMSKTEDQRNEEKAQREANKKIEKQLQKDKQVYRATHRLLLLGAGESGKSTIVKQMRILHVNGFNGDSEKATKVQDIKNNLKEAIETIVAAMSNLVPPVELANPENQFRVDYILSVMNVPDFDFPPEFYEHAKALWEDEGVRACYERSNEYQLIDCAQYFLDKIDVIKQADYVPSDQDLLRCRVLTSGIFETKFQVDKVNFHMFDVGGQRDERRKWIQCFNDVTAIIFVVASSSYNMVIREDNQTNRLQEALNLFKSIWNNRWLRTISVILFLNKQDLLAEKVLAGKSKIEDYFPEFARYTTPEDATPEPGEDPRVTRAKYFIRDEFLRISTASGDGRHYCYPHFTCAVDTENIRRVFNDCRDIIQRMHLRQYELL

[13] = target: Biotinylated Avi-tagged WT Gαs (residues 7-380 of the short isoform of human Gαs), GppNHp-bound (human) (UniProt P63092); assay: TR-FRET competition: biotinylated Gαs WT (GppNHp-bound) with His-tagged adenylyl cyclase (VC1/IIC2) as the blocked partner; peptide concentration varied
Sequence of Biotinylated Avi-tagged WT Gαs (residues 7-380 of the short isoform of human Gαs), GppNHp-bound (human) (P63092 other isoform, or with tags, fused parts or gaps limits assumed): as the sequence (P63092 with tags, fused parts or gaps isoform P63092-2) above

CC[C@H](C)[C@@H]1NC(=O)[C@H](CC(C)C)NC(=O)[C@@H](Cc2ccc(O)cc2)NC(=O)CSC[C@@H](C(=O)NCC(=O)NCCOCCOCCCCCCCl)NC(=O)[C@@H]2CCCN2C(=O)[C@H](CC(C)C)NC(=O)[C@H](CC(N)=O)NC(=O)[C@H](Cc2ccccc2)NC(=O)[C@H](C)NC(=O)[C@H](Cc2c[nH]c3ccccc23)NC(=O)[C@H](CCC(N)=O)NC(=O)[C@H](CCCNC(=N)N)NC(=O)[C@H](Cc2ccccc2)NC(=O)[C@H]([C@@H](C)O)NC1=O [ct-GD20] ({CH2CO}-[dY]LITFRQWAFNLPCG-{NH(CH2CH2O)2(CH2)6Cl}; thioether N-14)
cell permeability (CAPA) [1]: cell permeable

CC[C@H](C)[C@@H]1NC(=O)[C@H](CC(C)C)NC(=O)[C@@H](Cc2ccc(O)cc2)NC(=O)CSC[C@@H](C(=O)NCC(N)=O)NC(=O)[C@@H]2CCCN2C(=O)[C@H](CC(C)C)NC(=O)[C@H](CC(N)=O)NC(=O)[C@H](Cc2ccccc2)NC(=O)[C@H](C)NC(=O)[C@H](Cc2c[nH]c3ccccc23)NC(=O)[C@H](CCC(N)=O)NC(=O)[C@H](CCCNC(=N)N)NC(=O)[C@H](Cc2ccccc2)NC(=O)[C@H]([C@@H](C)O)NC1=O [GD20] ({CH2CO}-[dY]LITFRQWAFNLPCG-NH2; thioether N-14)
effect on the apparent rate of GTPγS binding (kapp) to Gαs [2]: drastically reducing
effect on Gαs GDP dissociation rates (koff) [3]: drastically reducing
binding to GppNHp-bound Gαi1 [4]: no detectable binding
binding to GDP-bound Gαi1 [5]: no detectable binding
Kd [6]: 31.4 ± 0.7 nM
koff [6]: 0.00343 s⁻¹
kon [6]: 109000 M⁻¹ s⁻¹
sensitivity of the nucleotide exchange step of Gαi [7]: much less sensitive
binding to GppNHp-bound Gαs [8]: no detectable binding

B1: GD20 (peptide)
peptide: {CH2CO}-[dY]LITFRQWAFNLPCG-NH2
modifications: thioether N-14
SMILES: CC[C@H](C)[C@@H]1NC(=O)[C@H](CC(C)C)NC(=O)[C@@H](Cc2ccc(O)cc2)NC(=O)CSC[C@@H](C(=O)NCC(N)=O)NC(=O)[C@@H]2CCCN2C(=O)[C@H](CC(C)C)NC(=O)[C@H](CC(N)=O)NC(=O)[C@H](Cc2ccccc2)NC(=O)[C@H](C)NC(=O)[C@H](Cc2c[nH]c3ccccc23)NC(=O)[C@H](CCC(N)=O)NC(=O)[C@H](CCCNC(=N)N)NC(=O)[C@H](Cc2ccccc2)NC(=O)[C@H]([C@@H](C)O)NC1=O
notes: also called cyclic peptide GD20
fold selectivity for Gαs over Gαi [9]: ≥ 100 fold
IC50, inhibition of Gαs steady-state GTPase activity [10]: 1.15 µM
IC50 [11]: 18.4 nM

B2: GN10 (peptide)
peptide: Ac-[dY]HEQFDNFCDLWCG-NH2
modifications: thioether (positions not given here); also: thioether partner Cys9 or Cys13 not settled
fold selectivity for GppNHp-bound over GDP-bound Gαs [12]: > 100 fold
IC50 (read off the curve) [13]: 200 nM

— patent US20240336657A1, “G-ALPHA-S PEPTIDE INHIBITORS AND USES THEREOF” (The Regents of the University of California, priority 2021, published 2024)
